Consider one molecule from article PMC5218480 (PLoS ONE, 2017).

In the assay the test system is MV-4-11 cells. In words: Gene expression microarray analysis (Affymetrix PrimeView) and GSEA. The note with it: MV-4-11 cells, 48 hours. Format: cell-based, human. The arrangement: RFU PODN (11730768_x_at) / Fold change /veh PODN (11730768_x_at) / RFU LINC00158 (11744669_a_at) / Fold change /veh LINC00158 (11744669_a_at) / RFU DUSP10 (11751237_a_at) / Fold change /veh DUSP10 (11751237_a_at) / RFU ID3 (11757404_x_at) / Fold change /veh ID3 (11757404_x_at) / RFU PLEKHG5 (11737974_s_at) / Fold change /veh PLEKHG5 (11737974_s_at) / RFU LRRC4B (11730491_at) / Fold change /veh LRRC4B (11730491_at) / RFU GIMAP4 (11747438_a_at) / Fold change /veh GIMAP4 (11747438_a_at) / RFU KRT8 (11758183_x_at) / Fold change /veh KRT8 (11758183_x_at) / RFU CNN1 (11734310_a_at) / Fold change /veh CNN1 (11734310_a_at) / RFU VPS37D (11726825_at) / Fold change /veh VPS37D (11726825_at) / RFU C10orf10 (11716522_x_at) / Fold change /veh C10orf10 (11716522_x_at) / RFU KIR2DL2 /// KIR2DL4 /// KIR2DL5A /// KIR2DL5B /// KIR2DS1 /// KIR2DS2 /// KIR2DS3 /// KIR2DS4 /// KIR3DL3 /// KIR3DL3 /// KIR3DS1 (11738374_at) / Fold change /veh KIR2DL2 /// KIR2DL4 /// KIR2DL5A /// KIR2DL5B /// KIR2DS1 /// KIR2DS2 /// KIR2DS3 /// KIR2DS4 /// KIR3DL3 /// KIR3DL3 /// KIR3DS1 (11738374_at) / RFU C1QL1 (11718748_at) / Fold change /veh C1QL1 (11718748_at) / RFU TMPRSS4 (11747572_a_at) / Fold change /veh TMPRSS4 (11747572_a_at) / RFU HAMP (11756126_x_at) / Fold change /veh HAMP (11756126_x_at) / RFU RNFT2 (11725882_a_at) / Fold change /veh RNFT2 (11725882_a_at) / RFU NR4A2 (11747474_a_at) / Fold change /veh NR4A2 (11747474_a_at) / RFU ABCC12 (11746883_a_at) / Fold change /veh ABCC12 (11746883_a_at) / RFU TMEM136 (11760407_x_at) / Fold change /veh TMEM136 (11760407_x_at) / RFU CLDN22 /// WWC2 (11732394_at) / Fold change /veh CLDN22 /// WWC2 (11732394_at) / RFU HLA-DPB1 (11760878_x_at) / Fold change /veh HLA-DPB1 (11760878_x_at) / RFU SPINT1 (11716480_a_at) / Fold change /veh SPINT1 (11716480_a_at) / RFU GAP43 (11754022_s_at) / Fold change /veh GAP43 (11754022_s_at) / RFU A4GNT (11735810_at) / Fold change /veh A4GNT (11735810_at) / RFU PRB3 (11715151_x_at) / Fold change /veh PRB3 (11715151_x_at) / RFU TUBB4B (11761932_at) / Fold change /veh TUBB4B (11761932_at) / RFU CAPN14 (11732068_a_at) / Fold change /veh CAPN14 (11732068_a_at) / RFU TMCC2 (11721928_a_at) / Fold change /veh TMCC2 (11721928_a_at) / RFU IRGQ (11745062_a_at) / Fold change /veh IRGQ (11745062_a_at) / RFU FAM174B (11720279_a_at) / Fold change /veh FAM174B (11720279_a_at) / RFU TMPRSS4 (11748680_a_at) / Fold change /veh TMPRSS4 (11748680_a_at) / RFU FAM212B (11763350_a_at) / Fold change /veh FAM212B (11763350_a_at) / RFU PLEKHG5 (11743358_a_at) / Fold change /veh PLEKHG5 (11743358_a_at) / RFU ZSCAN30 (11745921_a_at) / Fold change /veh ZSCAN30 (11745921_a_at) / RFU CMKLR1 (11741424_a_at) / Fold change /veh CMKLR1 (11741424_a_at) / RFU LOC101060620 /// MAPK8IP1 (11723275_at) / Fold change /veh LOC101060620 /// MAPK8IP1 (11723275_at) / RFU SPTSSB (11747773_x_at) / Fold change /veh SPTSSB (11747773_x_at) / RFU PRSS12 (11739890_at) / Fold change /veh PRSS12 (11739890_at) / RFU BIN1 (11741810_x_at) / Fold change /veh BIN1 (11741810_x_at) / RFU WNT11 (11732464_a_at) / Fold change /veh WNT11 (11732464_a_at) / RFU C10orf10 (11716521_a_at) / Fold change /veh C10orf10 (11716521_a_at) / RFU C5orf56 (11738089_at) / Fold change /veh C5orf56 (11738089_at) / RFU CYB561 (11721691_x_at) / Fold change /veh CYB561 (11721691_x_at) / RFU ANKRD19P (11752326_a_at) / Fold change /veh ANKRD19P (11752326_a_at) / RFU OR2T12 /// OR2T33 /// OR2T8 (11738714_s_at) / Fold change /veh OR2T12 /// OR2T33 /// OR2T8 (11738714_s_at) / RFU VCAN (11748164_a_at) / Fold change /veh VCAN (11748164_a_at) / RFU JSRP1 (11732532_at) / Fold change /veh JSRP1 (11732532_at) / RFU KRTAP10-11 (11738290_x_at) / Fold change /veh KRTAP10-11 (11738290_x_at) / RFU MYO3A (11730013_a_at) / Fold change /veh MYO3A (11730013_a_at) / RFU EBF3 (11725865_a_at) / Fold change /veh EBF3 (11725865_a_at) / RFU CAMK2N1 (11719241_x_at) / Fold change /veh CAMK2N1 (11719241_x_at) / RFU C5orf56 (11738088_a_at) / Fold change /veh C5orf56 (11738088_a_at) / RFU OLFML3 (11715873_a_at) / Fold change /veh OLFML3 (11715873_a_at) / RFU LOC100653217 /// NTM (11731650_a_at) / Fold change /veh LOC100653217 /// NTM (11731650_a_at) / RFU MAPK11 (11762145_a_at) / Fold change /veh MAPK11 (11762145_a_at) / RFU FIZ1 (11724087_x_at) / Fold change /veh FIZ1 (11724087_x_at) / RFU OASL (11726364_x_at) / Fold change /veh OASL (11726364_x_at) / RFU SOX15 (11748057_x_at) / Fold change /veh SOX15 (11748057_x_at) / RFU CD79A (11719716_a_at) / Fold change /veh CD79A (11719716_a_at) / RFU HIST1H1D (11736915_at) / Fold change /veh HIST1H1D (11736915_at) / RFU CASKIN2 (11723855_a_at) / Fold change /veh CASKIN2 (11723855_a_at) / RFU LOC730098 (11760151_x_at) / Fold change /veh LOC730098 (11760151_x_at) / RFU OR4N2 (11742367_at) / Fold change /veh OR4N2 (11742367_at) / RFU PRRT2 (11749266_a_at) / Fold change /veh PRRT2 (11749266_a_at) / RFU SNX32 (11753110_a_at) / Fold change /veh SNX32 (11753110_a_at) / RFU CDHR5 (11726645_a_at) / Fold change /veh CDHR5 (11726645_a_at) / RFU RCAN1 (11760418_a_at) / Fold change /veh RCAN1 (11760418_a_at) / RFU FAM167A (11723789_a_at) / Fold change /veh FAM167A (11723789_a_at) / RFU FAM26E (11764081_at) / Fold change /veh FAM26E (11764081_at) / RFU ISYNA1 (11749810_s_at) / Fold change /veh ISYNA1 (11749810_s_at) / RFU ACY1 (11761880_at) / Fold change /veh ACY1 (11761880_at) / RFU 11764098_at / Fold change /veh 11764098_at / RFU SAMD14 (11745864_x_at) / Fold change /veh SAMD14 (11745864_x_at) / RFU NPB (11741838_a_at) / Fold change /veh NPB (11741838_a_at) / RFU TMPRSS6 (11731388_a_at) / Fold change /veh TMPRSS6 (11731388_a_at) / RFU KRTAP10-2 (11738614_at) / Fold change /veh KRTAP10-2 (11738614_at) / RFU ARHGAP8 /// PRR5-ARHGAP8 (11727945_x_at) / Fold change /veh ARHGAP8 /// PRR5-ARHGAP8 (11727945_x_at) / RFU KRTAP5-7 /// NADSYN1 (11734609_at) / Fold change /veh KRTAP5-7 /// NADSYN1 (11734609_at) / RFU RASL12 (11751679_a_at) / Fold change /veh RASL12 (11751679_a_at) / RFU CDKN2B (11736163_a_at) / Fold change /veh CDKN2B (11736163_a_at) / RFU PRF1 (11729649_at) / Fold change /veh PRF1 (11729649_at) / RFU, ZNF638 /// ZNF638-IT1 / Fold change vs veh, ZNF638 /// ZNF638-IT1 / RFU, PANK3 / Fold change vs veh, PANK3 / RFU, SH3YL1 / Fold change vs veh, SH3YL1 / RFU, ZEB2 / Fold change vs veh, ZEB2 / RFU, NRIP1 / Fold change vs veh, NRIP1 / RFU, PTTG1IP / Fold change vs veh, PTTG1IP / RFU, CAPN2 / Fold change vs veh, CAPN2 / RFU, MED14 / Fold change vs veh, MED14 / RFU, SNORA58 / Fold change vs veh, SNORA58 / RFU, C1orf63 / Fold change vs veh, C1orf63 / RFU, LRRFIP1 / Fold change vs veh, LRRFIP1 / RFU, NDUFAF7 / Fold change vs veh, NDUFAF7 / RFU, SLC12A2 / Fold change vs veh, SLC12A2 / RFU, IBTK / Fold change vs veh, IBTK / RFU, ESF1 / Fold change vs veh, ESF1 / Fold change vs veh, TMEM50B / RFU, TAOK1 / Fold change vs veh, TAOK1 / RFU, ACBD3 / Fold change vs veh, ACBD3 / RFU, TMA16 / Fold change vs veh, TMA16 / RFU, RWDD3 / Fold change vs veh, RWDD3 / RFU, BCAT1 / Fold change vs veh, BCAT1 / RFU, EDEM3 / Fold change vs veh, EDEM3 / RFU, TMEM33 / Fold change vs veh, TMEM33 / RFU, WDR75 / Fold change vs veh, WDR75 / RFU, AHCTF1 / Fold change vs veh, AHCTF1 / RFU, TFRC / Fold change vs veh, TFRC / RFU, ZDHHC17 / Fold change vs veh, ZDHHC17 / RFU, NOM1 / Fold change vs veh, NOM1 / RFU, ARL8B / Fold change vs veh, ARL8B / RFU, ZBTB11 / Fold change vs veh, ZBTB11 / RFU, TAMM41 / Fold change vs veh, TAMM41 / RFU, KIAA1704 /// LOC100996395 / Fold change vs veh, KIAA1704 /// LOC100996395 / RFU, ING1 / Fold change vs veh, ING1 / RFU, TRMT61B / Fold change vs veh, TRMT61B / RFU, FUBP3 / Fold change vs veh, FUBP3 / RFU, TP53 / Fold change vs veh, TP53 / RFU, TNKS2 / Fold change vs veh, TNKS2 / RFU, ZFP14 / Fold change vs veh, ZFP14 / RFU, ACTR2 / Fold change vs veh, ACTR2 / RFU, PPP3R1 / Fold change vs veh, PPP3R1 / RFU, PIK3R1 / Fold change vs veh, PIK3R1 / RFU, HNRNPA1 / Fold change vs veh, HNRNPA1 / RFU, RNF170 / Fold change vs veh, RNF170 / RFU, ZNF28 / Fold change vs veh, ZNF28 / RFU, RNGTT / Fold change vs veh, RNGTT / RFU, OGT / Fold change vs veh, OGT / RFU, BRD1 / Fold change vs veh, BRD1 / RFU, MARS / Fold change vs veh, MARS / RFU, ZNF655 / Fold change vs veh, ZNF655 / RFU, FAHD1 / Fold change vs veh, FAHD1 / RFU, BDP1 / Fold change vs veh, BDP1 / RFU, LRRCC1 / Fold change vs veh, LRRCC1 / RFU, ARID1A / Fold change vs veh, ARID1A / RFU, ZNF146 / Fold change vs veh, ZNF146 / RFU, ZNF330 / Fold change vs veh, ZNF330 / RFU, GPN3 / Fold change vs veh, GPN3 / RFU, C9orf123 / Fold change vs veh, C9orf123 / RFU, N4BP2L2 / Fold change vs veh, N4BP2L2 / RFU, ARFIP1 / Fold change vs veh, ARFIP1 / RFU, FAM179B / Fold change vs veh, FAM179B / RFU, BCL10 / Fold change vs veh, BCL10 / RFU, UHRF1BP1L / Fold change vs veh, UHRF1BP1L / RFU, BET1 / Fold change vs veh, BET1 / RFU, CNOT2 / Fold change vs veh, CNOT2 / RFU, ZNF268 / Fold change vs veh, ZNF268 / Fold change vs veh, ZNF507 / RFU, DGCR2 / Fold change vs veh, DGCR2 / RFU, WDSUB1 / Fold change vs veh, WDSUB1 / Fold change vs veh, HSP90B1 /// MIR3652 / RFU, ADSS / Fold change vs veh, ADSS / RFU, GK / Fold change vs veh, GK / RFU, ZNF148 / Fold change vs veh, ZNF148 / RFU, TAF9 / Fold change vs veh, TAF9 / RFU, SLC1A5 / Fold change vs veh, SLC1A5 / RFU, SLMO2 / Fold change vs veh, SLMO2 / RFU, ABCC4 / Fold change vs veh, ABCC4 / RFU, LOC101060439 /// RAP1B / Fold change vs veh, LOC101060439 /// RAP1B / RFU, RFX7 / Fold change vs veh, RFX7 / RFU, GTPBP10 / Fold change vs veh, GTPBP10 / RFU, CNEP1R1 / Fold change vs veh, CNEP1R1 / RFU, BIVM-ERCC5 /// ERCC5 / Fold change vs veh, BIVM-ERCC5 /// ERCC5 / RFU, ILF3 / Fold change vs veh, ILF3 / RFU 11762660_at / Fold change /veh 11762660_at / RFU VCAN (11757783_s_at) / Fold change /veh VCAN (11757783_s_at) / RFU DDX43 (11728927_at) / Fold change /veh DDX43 (11728927_at) / RFU KRT8 (11758188_x_at) / Fold change /veh KRT8 (11758188_x_at) / RFU NKD1 (11759106_at) / Fold change /veh NKD1 (11759106_at) / RFU SRD5A1 (11742802_a_at) / Fold change /veh SRD5A1 (11742802_a_at) / RFU TPSAB1 /// TPSB2 (11721975_s_at) / Fold change /veh TPSAB1 /// TPSB2 (11721975_s_at) / RFU GSTM3 (11746129_a_at) / Fold change /veh GSTM3 (11746129_a_at) / RFU IL23R (11737362_x_at) / Fold change /veh IL23R (11737362_x_at) / RFU TMEM51 (11727254_a_at) / Fold change /veh TMEM51 (11727254_a_at) / RFU PIWIL2 (11732686_x_at) / Fold change /veh PIWIL2 (11732686_x_at) / RFU ORM1 (11744905_x_at) / Fold change /veh ORM1 (11744905_x_at) / RFU CCDC152 (11743942_at) / Fold change /veh CCDC152 (11743942_at) / RFU ECM1 (11717891_a_at) / Fold change /veh ECM1 (11717891_a_at) / RFU IL23R (11748794_a_at) / Fold change /veh IL23R (11748794_a_at) / RFU TNFAIP8L3 (11732012_x_at) / Fold change /veh TNFAIP8L3 (11732012_x_at) / RFU MBOAT4 (11741988_at) / Fold change /veh MBOAT4 (11741988_at) / RFU 11764193_at / Fold change /veh 11764193_at / RFU TMEM53 (11763286_at) / Fold change /veh TMEM53 (11763286_at) / RFU MAGEB2 (11727129_at) / Fold change /veh MAGEB2 (11727129_at) / RFU TMEM200A (11744735_a_at) / Fold change /veh TMEM200A (11744735_a_at) / RFU CCDC152 (11751479_a_at) / Fold change /veh CCDC152 (11751479_a_at) / RFU FAM211A (11726209_a_at) / Fold change /veh FAM211A (11726209_a_at) / RFU RGS16 (11746705_a_at) / Fold change /veh RGS16 (11746705_a_at) / RFU VCAN (11755009_s_at) / Fold change /veh VCAN (11755009_s_at) / RFU RHOB (11743442_s_at) / Fold change /veh RHOB (11743442_s_at) / RFU RGS16 (11720943_a_at) / Fold change /veh RGS16 (11720943_a_at) / RFU RGS16 (11720944_at) / Fold change /veh RGS16 (11720944_at) / RFU, VPS4B / Fold change vs veh, VPS4B / RFU, CREB1 / Fold change vs veh, CREB1 / RFU, DNAJC13 / Fold change vs veh, DNAJC13 / RFU, GNAQ / Fold change vs veh, GNAQ / RFU, CDK5R1 / Fold change vs veh, CDK5R1 / RFU, ZRANB3 / Fold change vs veh, ZRANB3 / RFU, CUL4A / Fold change vs veh, CUL4A / RFU, CCNY / Fold change vs veh, CCNY / RFU, UFL1 / Fold change vs veh, UFL1 / RFU, COG3 / Fold change vs veh, COG3 / RFU, DIAPH2 / Fold change vs veh, DIAPH2 / RFU, SKA2 / Fold change vs veh, SKA2 / RFU, AFF3 / Fold change vs veh, AFF3 / RFU, LMF1 / Fold change vs veh, LMF1 / RFU, IPO11 / Fold change vs veh, IPO11 / RFU, DFFB / Fold change vs veh, DFFB / RFU, FOXP1 / Fold change vs veh, FOXP1 / RFU, CARD8 / Fold change vs veh, CARD8 / RFU, STRN3 / Fold change vs veh, STRN3 / RFU, ADK / Fold change vs veh, ADK / RFU, RASSF2 / Fold change vs veh, RASSF2 / RFU, WIPF1 / Fold change vs veh, WIPF1 / RFU, LARP1B / Fold change vs veh, LARP1B / RFU, RASA1 / Fold change vs veh, RASA1 / RFU, RB1 / Fold change vs veh, RB1 / RFU, PPFIA1 / Fold change vs veh, PPFIA1 / RFU, MAT2A / Fold change vs veh, MAT2A / RFU, CCT5 / Fold change vs veh, CCT5 / RFU, WDR92 / Fold change vs veh, WDR92 / RFU, CUX1 / Fold change vs veh, CUX1 / RFU, TTC7A / Fold change vs veh, TTC7A / RFU, TMEM135 / Fold change vs veh, TMEM135 / RFU, DEPTOR / Fold change vs veh, DEPTOR / RFU, CPM / Fold change vs veh, CPM / RFU, DNAJB6 / Fold change vs veh, DNAJB6 / RFU, CACNA2D3 / Fold change vs veh, CACNA2D3 / RFU, DTX4 / Fold change vs veh, DTX4 / RFU, TFCP2 / Fold change vs veh, TFCP2 / RFU, GMCL1 /// GMCL1P1 / Fold change vs veh, GMCL1 /// GMCL1P1 / RFU, AEBP2 / Fold change vs veh, AEBP2 / RFU, SNHG1 /// SNORD22 /// SNORD25 /// SNORD26 /// SNORD27 /// SNORD28 /// SNORD29 /// SNORD31 / Fold change vs veh, SNHG1 /// SNORD22 /// SNORD25 /// SNORD26 /// SNORD27 /// SNORD28 /// SNORD29 /// SNORD31 / Fold change (Aza/veh), C12orf56 (ProbeSet 11735607_a_at) / Fold change (ACY-1035/veh), C12orf56 (ProbeSet 11735607_a_at) / Fold change (Aza/veh), FGFR1OP (ProbeSet 11751329_s_at) / Fold change (ACY-1035/veh), FGFR1OP (ProbeSet 11751329_s_at) / Fold change (Aza/veh), VPS36 (ProbeSet 11739960_a_at) / Fold change (ACY-1035/veh), VPS36 (ProbeSet 11739960_a_at) / RFU SYPL1 (11715823_x_at) / Fold change /veh SYPL1 (11715823_x_at) / RFU IGFBP7 (11715501_s_at) / Fold change /veh IGFBP7 (11715501_s_at) / RFU REEP3 (11722064_at) / Fold change /veh REEP3 (11722064_at) / RFU IGLL1 (11728026_x_at) / Fold change /veh IGLL1 (11728026_x_at): dose or concentration left out as unconfirmed.

Molecules are shown by their SMILES.

Turning to `Nc1ccc(-c2cccs2)cc1NC(=O)c1ccc2c(c1)cc(C1CC1)n2CCN1CCOCC1` [ACY-1035], the “RFU PRRT2 (11749266_a_at)” value is given as 47.30 RFU.
